Like-named read-outs stand apart in the source and are kept apart here.
System: resistant clinical isolates of C. albicans
Experiment: EC50 against selected resistant clinical isolates with fluconazole
Assay type: cell-based
Settings: Candida albicans, fluconazole 64 μg/mL
Description: C. albicans was grown in SC medium overnight and then diluted to an effective OD600 of 0.0625. Serial ten-fold dilutions of the test compounds (0.15-1500 μM) were prepared in DMSO in 1.5 mL Eppendorf tubes. […] The plates were incubated in a rotary shaker/incubator at 30° C. for 16 h. The contents of each well was resuspended with a micropipettor and a 20 μL aliquot was added to a polystyrene cuvette and diluted with 680 μL of deionized water. The suspension was triturated again immediately before measuring the absorbance at 600 nm (OD600) for cell densities. EC50 values were determined by fitting to the Hill equation using the Excel-based tool ED50PLUS v1.0 (Mario H. Vargas) or using Mathematica. Similar procedures were used for Candida glabrata and Cryptococcus neoformans.
(Flowers, S. A., et al. Eukaryotic Cell 2012, 11, 1289-1299.) The strains grow at dramatically different rates.

## Cc1c(Cl)ccc2c1NC(=O)[C@@]21[C@H]2C(=O)N(c3ccccc3)C(=O)[C@H]2[C@H]2CN(C(=O)OCc3ccccc3)CCN21 (racemic) [Compound 25, (±)-benzyl (3R,3a′R,3b'S,9a'S)-6-chloro-7-methyl-1′,2,3′-trioxo-2′-phenyl-2′,3′,3a′,3b′,4′,6′,7′,9a′-octahydrospiro[indoline-3,9′-pyrrolo[3′,4′:3,4]pyrrolo[1,2-a]pyrazine]-5′(1′H)-carboxylate]
read-out: Potency Cpd 25 EC50, clinical isolate 17
  EC50: 5 nM
read-out: Potency Cpd 25 EC50, clinical isolate 23
  EC50: 53 nM
read-out: Potency Cpd 25 EC50, clinical isolate 26
  EC50: 2 nM
read-out: Potency Cpd 25 EC50, clinical isolate 33
  EC50: 11 nM
read-out: Potency Cpd 25 EC50, clinical isolate 36
  EC50: 5 nM
read-out: Potency Cpd 25 EC50, clinical isolate 45
  EC50: 16 nM

— patent publication US11174267B2, “Spiroindolinones and therapeutic uses thereof” (The Regents of the University of California, priority 2015, dated 2021)
